Laboratory results reported in patent US9017681B2, “Adenylyl cyclases as novel targets for antibactrial interventions” (Cornell Research Foundation, Inc., priority 2007, dated 2015).
pIC50: −log10 of the molar value. Read-outs that look alike come from different tables or passages of the source.

Biological target: T1, human sAC (Homo sapiens, UniProt Q96PN6)
T1 construct: made in house
T1 sequence (Q96PN6 1-469 limits assumed): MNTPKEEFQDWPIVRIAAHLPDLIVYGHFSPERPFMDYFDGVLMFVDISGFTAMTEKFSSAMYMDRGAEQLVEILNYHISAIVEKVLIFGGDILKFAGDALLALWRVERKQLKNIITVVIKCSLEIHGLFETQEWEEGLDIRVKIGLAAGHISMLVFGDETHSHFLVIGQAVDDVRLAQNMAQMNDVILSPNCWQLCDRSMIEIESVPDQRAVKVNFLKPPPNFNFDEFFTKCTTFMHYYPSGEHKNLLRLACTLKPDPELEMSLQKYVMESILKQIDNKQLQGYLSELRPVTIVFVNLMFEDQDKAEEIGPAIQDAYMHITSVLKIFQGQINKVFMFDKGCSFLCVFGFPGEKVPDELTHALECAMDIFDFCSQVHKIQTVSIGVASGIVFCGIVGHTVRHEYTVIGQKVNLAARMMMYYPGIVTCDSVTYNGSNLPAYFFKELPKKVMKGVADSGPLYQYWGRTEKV
Assay: in vitro adenylyl cyclase assay with purified human sAC protein (cAMP by Correlate-EIA)
Format: biochemical
Description: Purified human sAC protein was used in an in vitro adenylyl cyclase assay. Purification of the protein is described in detail in Litvin et al. 2003. (J. Biol. Chem. 278:15922-15926). This paper also describes the general conditions for a sAC cyclase assay. The specific conditions for the in vitro assay are as follows.
For basal sAC activity, an assay master mixture with sufficient volume for all reactions was prepared containing:
100 U/ml creatine phosphokinase (CPK)
An aliquot of the master mixture was added to the purified human sAC. The assay mixture also included the indicated concentration of KH compound, or an equivalent volume of vehicle (i.e., DMSO) as control. The reaction was started by adding 5 mM ATP (total assay volume=100 μL). The reaction mixture was incubated at 30° C. for 30 minutes and then stopped by adding 100 μl […]. Stimulated assay conditions involve adding 40 mM bicarbonate and 5 mM CaCl2 to the above master mixture.
Cyclic AMP levels were measured in each sample using the Correlate-EIA Direct Cyclic AMP assay kit from Assay Designs as per manufacturers instructions.

[1] = 100 μM of compound, BASAL human sAC in vitro activity, read-out: % Inhibition (100 μM), hsACt-Basal
[2] = 100 μM of compound, stimulated human sAC in vitro activity, read-out: % Inhibition (100 μM), hsACt-Stim.
[3] = BASAL activity of human sAC in vitro (just Mg-ATP, no calcium or bicarbonate), read-out: hsACt-Basal approximate IC50 (or the dose range where the IC50 should lie)
[4] = stimulated activity of human sAC in vitro (calcium and bicarbonate stimulated), read-out: hsACt-Stim. approximate IC50 (or the dose range where the IC50 should lie)
[5] = 100 μM of compound, stimulated human sAC in vitro activity

| inhibition at 100 µM [1] | inhibition at 100 µM [2] | pIC50 [3] | pIC50 [4] | Activation, printed in column % Inhibition (100 μM), hsACt-Basal (100 μM of compound, BASAL human sAC in vitro activity) | Activation, printed in column % Inhibition (100 μM), hsACt-Stim. [5] | % Inhibition (100 μM), hsACt-Basal (100 μM of compound, BASAL human sAC in vitro activity, 100 µM) | % Inhibition (100 μM), hsACt-Stim. (100 μM of compound, stimulated human sAC in vitro activity, 100 µM) | Activation in words, printed in column % Inhibition (100 μM), hsACt-Stim. (@ 100, stimulated human sAC in vitro activity) | Compound |
| --- | --- | --- | --- | --- | --- | --- | --- | --- | --- |
| 0% | 0% | < 4.00 | < 4.00 | – | – | – | – | – | O=C(CSc1nc2ccccc2[nH]1)N/N=C/c1ccccc1C(=O)O [KH7.112] |
| 80% | 80% | 4.00 to 5.00 | 4.00 to 5.00 | – | – | – | – | – | C/C(=N/NC(=O)CSc1nc2ccccc2[nH]1)c1ccc(-c2ccccc2)cc1 [KH7.113] |
| 80% | 80% | 4.00 to 5.00 | 4.00 to 5.00 | – | – | – | – | – | C/C(=N/NC(=O)CSc1nc2ccccc2[nH]1)c1ccc(Cl)c(Cl)c1 [KH7.115] |
| – | – | – | 6.00 to 7.00 | Activation 30% | Activation 50% | – | – | – | C/C(=N/NC(=O)CSc1nc2ccccc2[nH]1)c1cccnc1 [KH7.116] |
| 0% | 0% | < 4.00 | < 4.00 | – | – | – | – | – | C/C(=N/NC(=O)CSc1nc2ccccc2[nH]1)c1ccc(F)cc1 [KH7.118] |
| 60% | 80% | 4.00 to 5.00 | 4.00 to 5.00 | – | – | – | – | – | C/C(=N/NC(=O)CSc1nc2ccccc2[nH]1)c1cccc(Br)c1 [KH7.119] |
| 90% | 90% | 4.00 to 5.00 | 4.00 to 5.00 | – | – | – | – | – | O=C(CSc1nc2ccccc2[nH]1)N/N=C/c1ccccc1I [KH7.121] |
| 50% | 50% | – | – | – | – | – | – | – | O=C(CSc1nc2ccccc2[nH]1)N/N=C/c1ccc([N+](=O)[O-])cc1 [KH7.122] |
| 0% | 0% | < 4.00 | < 4.00 | – | – | – | – | – | O=C(CSc1nc2ccccc2[nH]1)N/N=C/c1cccnc1 [KH7.123] |
| 40% | 30% | < 4.00 | < 4.00 | – | – | – | – | – | COc1cc(/C=N/NC(=O)CSc2nc3ccccc3[nH]2)cc(OC)c1OC(C)=O [KH7.124] |
| 40% | 50% | < 4.00 | 4.00 to 5.00 | – | – | – | – | – | O=C(CSc1nc2ccccc2[nH]1)N/N=C/c1cccc2ccccc12 [KH7.126] |
| 50% | 50% | – | – | – | – | – | – | – | O=C(CSc1nc2ccccc2[nH]1)N/N=C/c1cccc(Cl)c1 [KH7.128] |
| 50% | 50% | – | – | – | – | – | – | – | O=C(CSc1nc2ccccc2[nH]1)N/N=C/c1c(Cl)cccc1Cl [KH7.130] |
| 60% | 60% | 4.00 to 5.00 | 4.00 to 5.00 | – | – | – | – | – | O=C(CSc1nc2ccccc2[nH]1)N/N=C/c1ccccc1Br [KH7.131] |
| 10% | 0% | < 4.00 | < 4.00 | – | – | – | – | – | COc1ccc(/C=N/NC(=O)CSc2nc3ccccc3[nH]2)cc1 [KH7.132] |
| 60% | – | 4.00 to 5.00 | – | – | – | – | – | – | O=C(CSc1nc2ccccc2[nH]1)N/N=C/c1ccccc1Cl [KH7.133] |
| 0% | 0% | < 4.00 | < 4.00 | – | – | – | – | – | Cc1ccc(/C=N/NC(=O)CSc2nc3ccccc3[nH]2)cc1 [KH7.134] |
| 50% | 0% | – | < 4.00 | – | – | – | – | – | CC(C)c1ccc(/C=N/NC(=O)CSc2nc3ccccc3[nH]2)cc1 [KH7.135] |

| inhibition at 100 µM [1] | inhibition at 100 µM [2] | pIC50 [3] | pIC50 [4] | Activation, printed in column % Inhibition (100 μM), hsACt-Basal (100 μM of compound, BASAL human sAC in vitro activity) | Activation, printed in column % Inhibition (100 μM), hsACt-Stim. [5] | % Inhibition (100 μM), hsACt-Basal (100 μM of compound, BASAL human sAC in vitro activity, 100 µM) | % Inhibition (100 μM), hsACt-Stim. (100 μM of compound, stimulated human sAC in vitro activity, 100 µM) | Activation in words, printed in column % Inhibition (100 μM), hsACt-Stim. (@ 100, stimulated human sAC in vitro activity) | Compound |
| --- | --- | --- | --- | --- | --- | --- | --- | --- | --- |
| 80% | 40% | 4.00 to 5.00 | < 4.00 | – | – | – | – | – | CCN(CC)c1ccc(/C=N/NC(=O)CSc2nc3ccccc3[nH]2)cc1 [KH7.136] |
| 0% | – | < 4.00 | 4.00 to 4.52 | – | Activation 100% | – | – | – | O=C(CSc1nc2ccccc2[nH]1)N/N=C/c1ccc(Cl)cc1 [KH7.137] |
| 30% | 25% | < 4.00 | < 4.00 | – | – | – | – | – | C/C(=N\NC(=O)CSc1nc2ccccc2[nH]1)c1ccc([N+](=O)[O-])cc1 [KH7.138] |
| 75% | 75% | 5.00 to 6.00 | 5.00 to 6.00 | – | – | 70% | 70% | – | Cn1c(SCC(=O)N/N=C/c2cc(Br)ccc2O)nc2ccccc21 [KH7.139] |
| 0% | 0% | < 4.00 | < 4.00 | – | – | – | – | – | Cn1c(SCC(=O)N/N=C/c2ccccn2)nc2ccccc21 [KH7.140] |
| 80% | 80% | 5.00 to 6.00 | 6.00 | – | – | – | – | – | O=C(CSc1nc2ccccc2n1Cc1ccccc1)N/N=C/c1cc(Br)ccc1O [KH7.141] |
| 0% | – | < 4.00 | 5.00 to 6.00 | – | – | – | – | Activation @ 100 | Cc1ccc(Cn2c(SCC(=O)N/N=C/c3ccncc3)nc3ccccc32)cc1 [KH7.142] |
| 75% | 75% | 6.00 | 6.00 | – | – | – | – | – | Cc1ccc(Cn2c(SCC(=O)N/N=C/c3cc(Br)ccc3O)nc3ccccc32)cc1 [KH7.143] |
| 70% | 80% | 6.00 | 6.00 | – | – | – | – | – | O=C(CSc1nc2ccccc2n1Cc1ccc(Cl)cc1)N/N=C\c1cc(Br)ccc1O [KH7.144] |
| 0% | 20% | < 4.00 | < 4.00 | – | – | – | – | – | CCOc1ccc(/C=N/NC(=O)CSc2nc3ccccc3[nH]2)cc1OC [KH7.145] |
| 50% | 40% | – | < 4.00 | – | – | – | – | – | O=C(CSc1nc2ccccc2[nH]1)N/N=C/c1ccc(Cl)c([N+](=O)[O-])c1 [KH7.146] |
| 90% | 85% | 6.00 | 6.00 | – | – | – | – | – | O=C(CSc1nc2ccccc2[nH]1)N/N=C/c1cc(Br)cc(Br)c1O [KH7.149] |
| 0% | 0% | < 4.00 | < 4.00 | – | – | – | – | – | O=C(CSc1nc2ccccc2[nH]1)N/N=C/c1ccc(C(F)(F)F)cc1 [KH7.150] |
| 75% | 50% | 4.00 to 5.00 | 4.00 to 5.00 | – | – | – | – | – | COc1ccc(/C=N/NC(=O)CSc2nc3ccccc3[nH]2)cc1Br [KH7.151] |
| 60% | – | 4.00 to 5.00 | – | – | – | – | – | – | O=C(CSc1nc2ccccc2[nH]1)N/N=C/c1cc(Br)ccc1F [KH7.152] |
| 0% | 0% | < 4.00 | < 4.00 | – | – | – | – | – | O=C(CSc1nc2ccccc2[nH]1)N/N=C/c1cccc(F)c1 [KH7.153] |
| 100% | 85% | 6.00 to 7.00 | 6.00 to 7.00 | – | – | – | – | – | O=C(CSc1nc2ccccc2[nH]1)N/N=C/c1cc(I)cc(I)c1O [KH7.154] |
| 0% | 0% | < 4.00 | < 4.00 | – | – | – | – | – | O=C(CSc1nc2ccccc2[nH]1)N/N=C/c1cc([N+](=O)[O-])ccc1Cl [KH7.155] |
